Experimental data published in article PMC6199744, “Development of Chemical Proteomics for the Folateome and Analysis of the Kinetoplastid Folateome” (ACS Infectious Diseases, 2018).
Several values for one entry are separate records, joined by “and”; a condition that tells them apart may be missing. Identical values can stand only once. Like-named read-outs stand apart in the source and are kept apart here.

System: L. major lysate proteins
Experiment: Multitargeted bead mixture chemoproteomics, single concentration competition, proteome-wide
Format: binding
Conditions: for fold change / fold change relative to vehicle control: vehicle control = 1; for fold change relative to vehicle control: competition with free ligand

`CCCCCCOc1ccc(Cc2cnc(N)nc2N)cc1` [compound 1] was tested, and the “fold change vs vehicle control” value was 0.96 and 1.16 and 1.02 and 0.84, the fold change (LINJ.05.0500 ATPASE ALPHA SUBUNIT) was 1.04 and the fold change (LINJ.36.4570 PROTEASOME REGULATORY ATPASE SUBUNIT) was 0.72. It also gave a fold change (LMJF.10.0510 GLYCEROL-3-PHOSPHATE DEHYDROGENASE NAD ], GLYCOSOMAL) of 0.92, a fold change (LMJF.16.1610 PROHIBITIN) of 1.18 and a fold change (LMJF.18.1370 HEAT SHOCK PROTEIN, PUTATIVE) of 0.95. For the same compound, the fold change (LMJF.19.0300 RNA BINDING PROTEIN, PUTATIVE) was 0.89, the fold change (LMJF.21.0760 […]-ATP-ASE SUBUNIT 5, PUTATIVE) was 0.7 and the fold change (LMJF.22.0410 HYPOTHETICAL PROTEIN, CONSERVED) was 0.84. For the same compound, the fold change (LMJF.25.1770 ENOYL-COA REDUCTASE, PUTATIVE) was 0.98, the fold change (LMJF.26.0300 AMINOPEPTIDASE-LIKE PROTEIN) was 0.77 and the fold change (LMJF.26.2560 HYPOTHETICAL PROTEIN, CONSERVED) was 0.82. For the same compound, the fold change (LMJF.27.1810 GLYCOSOMAL PHOSPHOENOLPYRUVATE CARBOXYKINASE, PUTATIVE) was 1.05, the fold change (LMJF.28.0490 PROPIONYL-COA CARBOXYLASE BETA CHAIN, PUTATIVE) was 0.7 and the fold change (LMJF.29.0940 HY[…], CONSERVED) was 1.06. It also gave a fold change (LMJF.29.1310 CARNITINE/CHOLINE ACETYLTRANSFERASE, PUTATIVE) of 0.99, a fold change (LMJF.29.1470 HYPOTHETICAL PROTEIN, CONSERVED) of 0.73 and a fold change (LMJF.29.2440 HYPOTHETICAL PROTEIN, CONSERVED) of 0.88. It also gave a fold change (LMJF.30.2350 SPHINGOSINE 1-PHOSPHATE LYASE) of 1.13, a fold change (LMJF.30.2970 GLYCERALDEHYDE 3-PHOSPHATE DEHYDROGENASE, GLYCOSOMAL) of 1.09 and a fold change (LMJF.30.3390 CAS/CSE/IMPORTIN DOMAIN PROTEIN, PUTATIVE) of 0.85. For the same compound, the fold change (LMJF.31.2650 ACETOIN DEHYDROGENASE E3 COMPONENT-LIKE PROTEIN) was 0.92, the fold change (LMJF.31.2970 ACETYL-COA CARBOXYLASE, PUTATIVE) was 0.96 and the fold change (LMJF.33.1030 HYPOTHETICAL PROTEIN, CONSERVED) was 0.85. The fold change (LMJF.33.1930 PHOSPHORIBOSYLPYROPHOSPHATE SYNTHETASE, PUTATIVE) was 0.91, the fold change (LMJF.35.5040 polyadenylate-binding protein 1) was 0.93 and the fold change (LMJF.35.5250 ALPHA-1,2-MANNOSYLTRANSFERASE, PUTATIVE) was 0.88. For the same compound, the fold change (LMJF.36.5100 HYPOTHETICAL PROTEIN, CONSERVED) was 0.89, the fold change (LMJF.[…] RIBOSOMAL PROTEIN S7, PUTATIVE) was 1.43 and the “fold change vs vehicle control” value (protein LINJ.03.0940 HY[…], CONSERVED) was 1.24. For the same compound, the “fold change vs vehicle control” value (protein LINJ.09.0030 HYPOTHETICAL PROTEIN, CONSERVED) was 0.98, the “fold change relative to vehicle control” value (protein LINJ.11.0780 40S RIBOSOMAL PROTEIN S21, PUTATIVE) was 1.29 and the fold change (protein LINJ.13.0990 PROTEASOME REGULATORY ATPASE SUBUNIT 2, PUTATIVE) was 0.79. For the same compound, the “fold change vs vehicle control” value (protein LINJ.13.1460 ALPHA TUBULIN) was 1, the fold change (protein LINJ.15.0090 HEAT SHOCK PROTEIN HSLVU, ATPASE SUBUNIT HSLU, PUTATIVE) was 0.97 and the “fold change relative to vehicle control” value (protein LINJ.16.1380 […], PUTATIVE) was 1.55. The “fold change vs vehicle control” value (protein LINJ.19.0300 RNA BINDING PROTEIN) was 1.16, the “fold change relative to vehicle control” value (protein LINJ.20.1390 COATOMER BETA SUBUNIT, PUTATIVE) was 1.01 and the “fold change vs vehicle control” value (protein LINJ.21.1310 40S RIBOSOMAL PROTEIN S23, PUTATIVE) was 1.08. The “fold change vs vehicle control” value (protein LINJ.23.1680 HYPOTHETICAL PROTEIN, CONSERVED) was 0.98, the “fold change vs vehicle control” value (protein LINJ.25.1170 […] OXIDASE VII, PUTATIVE) was 1.03 and the “fold change relative to vehicle control” value (protein LINJ.25.1220 RIBOSOMAL PROTEIN S25) was 1.36. For the same compound, the “fold change vs vehicle control” value (protein LINJ.26.1080 HY[…], CONSERVED) was 1.09, the “fold change vs vehicle control” value (protein LINJ.27.1140 HYPOTHETICAL PROTEIN, CONSERVED) was 0.97 and the “fold change vs vehicle control” value (protein LINJ.28.1100 RIBOSOMAL PROTEIN S20, PUTATIVE) was 1. For the same compound, the “fold change relative to vehicle control” value (protein LINJ.28.1940 REPLICATION FACTOR A, 51KDA SUBUNIT, PUTATIVE) was 1.2, the fold change (protein LINJ.31.2350 ADP-RI[…], PUTATIVE) was 1.13 and the “fold change vs vehicle control” value (protein LINJ.34.0670 PROTEASOME REGULATORY NON-ATP-ASE SUBUNIT 11, PUTATIVE) was 0.97. The fold change (protein LINJ.35.0410 40S RIBOSOMAL PROTEIN S3A, PUTATIVE) was 1.07, the “fold change relative to vehicle control” value (protein LINJ.35.0780 CBS DOMAIN PROTEIN, CONSERVED) was 1.21 and the “fold change vs vehicle control” value (protein LINJ.36.0510 HY[…], CONSERVED) was 1.03. The “fold change vs vehicle control” value (protein LINJ.36.3940 40S RIBOSOMAL PROTEIN S27-1, PUTATIVE) was 0.91, the fold change (protein LINJ.36.4180 HS1VU COMPLEX PROTEOLYTIC SUBUNIT-LIKE) was 0.81 and the fold change (protein LINJ.36.7350 CYTOCHROME C OXIDASE SUBUNIT I) was 0.96. For the same compound, the fold change (protein LMJF.01.0520 LONG-CHAIN-FATTY-ACID-COA LIGASE, PUTATIVE) was 0.59, the “fold change vs vehicle control” value (protein LMJF.02.0460 HYPOTHETICAL PROTEIN, CONSERVED) was 0.96 and the “fold change vs vehicle control” value (protein LMJF.03.0230 LONG CHAIN FATTY ACYL COA SYNTHETASE, PUTATIVE) was 1.11. The “fold change vs vehicle control” value (protein LMJF.03.0630 HYPOTHETICAL PROTEIN, CONSERVED) was 0.95, the fold change (protein LMJF.05.0780 HY[…], CONSERVED) was 1.17 and the fold change (protein LMJF.06.0010 HISTONE H4) was 1.14. The fold change (protein LMJF.06.0140 PROTEASOME BETA 6 SUBUNIT, PUTATIVE) was 0.8, the fold change (protein LMJF.06.0650 LANOSTEROL SYNTHASE, PUTATIVE) was 0.88 and the “fold change vs vehicle control” value (protein LMJF.08.0510 RIBOSE-PHOSPHATE PYROPHOSPHOKINASE, PUTATIVE) was 1.04. For the same compound, the “fold change vs vehicle control” value (protein LMJF.08.0550 TRANSLATION INITIATION FACTOR-LIKE PROTEIN) was 1.1, the “fold change vs vehicle control” value (protein LMJF.08.1100 HY[…], CONSERVED) was 1.01 and the “fold change relative to vehicle control” value (protein LMJF.09.1120 MIT[…] BINDING PROTEIN 2,MRP2, GBP25) was 1.17. The “fold change vs vehicle control” value (protein LMJF.09.1260 HY[…], CONSERVED) was 1.16, the fold change (protein LMJF.10.1010 NUCLEOSIDE PHOSPHORYLASE-LIKE PROTEIN) was 0.72 and the fold change (protein LMJF.10.1240 HYPOTHETICAL PROTEIN, CONSERVED) was 0.8. For the same compound, the “fold change vs vehicle control” value (protein LMJF.11.0130 NGG1 I[…] 3-LIKE PROTEIN) was 0.99, the “fold change vs vehicle control” value (protein LMJF.11.0240 […] 7 SUBUNIT, PUTATIVE) was 1.03 and the fold change (protein LMJF.11.1050 PRETRA[…], ALPHA SUBUNIT, PUTATIVE) was 1.11. For the same compound, the “fold change vs vehicle control” value (protein LMJF.11.1110 60S RIBOSOMAL PROTEIN L28, PUTATIVE) was 1.29, the “fold change vs vehicle control” value (protein LMJF.12.0210 […] […]1L8 3, PUTATIVE) was 1.04 and the “fold change vs vehicle control” value (protein LMJF.12.0280 ORNITHINE DECARBOXYLASE, PUTATIVE) was 0.98. The “fold change vs vehicle control” value (protein LMJF.13.0450 HYPOTHETICAL PROTEIN, CONSERVED) was 0.99, the “fold change vs vehicle control” value (protein LMJF.13.0870 MITOCHONDRIAL PROCESSING PEPTIDASE ALPHA SUBUNIT, PUTATIVE) was 0.94 and the “fold change vs vehicle control” value (protein LMJF.14.0130 INOSINE-GUANINE NUCLEOSIDE HYDROLASE, PUTATIVE) was 0.91. It also gave a fold change (protein LMJF.14.0310 […] 3 SUBUNIT, PUTATIVE) of 1.01, a fold change (protein LMJF.14.0650 FATTY ACID ELONGASE, PUTATIVE) of 0.96 and a fold change (protein LMJF.14.0660 FATTY ACID ELONGASE, PUTATIVE) of 1.11. For the same compound, the fold change (protein LMJF.14.0705 FATTY ACID ELONGASE, PUTATIVE) was 1.02, the fold change (protein LMJF.14.0740 FATTY ACID ELONGASE, PUTATIVE) was 1.2 and the “fold change relative to vehicle control” value (protein LMJF.14.1120 KINESIN K39, PUTATIVE) was 1.45. The “fold change vs vehicle control” value (protein LMJF.15.0230 LYSYL-TRNA SYNTHETASE, PUTATIVE) was 1.07, the “fold change vs vehicle control” value (protein LMJF.15.0280 RIBONUCLEOPROTEIN P18, MIT[…], PUTATIVE) was 1.04 and the fold change (protein LMJF.15.1010 GLUTAMATE DEHYDROGENASE) was 1.09. For the same compound, the “fold change relative to vehicle control” value (protein LMJF.16.0520 HYPOTHETICAL PROTEIN, CONSERVED) was 2.54, the fold change (protein LMJF.16.0540 ASPARTATE CARBAMOYLTRANSFERASE, PUTATIVE) was 0.89 and the “fold change vs vehicle control” value (protein LMJF.16.0950 SUCROSE-PHOSPHATE SYNTHASE-LIKE PROTEIN) was 0.99. For the same compound, the “fold change vs vehicle control” value (protein LMJF.16.0960 HYPOTHETICAL PROTEIN, CONSERVED) was 0.44, the fold change (protein LMJF.16.1180 COATOMER DELTA SUBUNIT-LIKE PROTEIN) was 0.87 and the fold change (protein LMJF.17.0010 HYPOTHETICAL PROTEIN, CONSERVED) was 0.88. For the same compound, the “fold change vs vehicle control” value (protein LMJF.18.0510 ACONITASE, PUTATIVE) was 0.98, the “fold change vs vehicle control” value (protein LMJF.18.0890 RAB7 GTP BINDING PROTEIN, PUTATIVE) was 0.94 and the fold change (protein LMJF.18.1130 RAS-RELATED PROTEIN RAB-5, PUTATIVE) was 0.85. For the same compound, the fold change (protein LMJF.19.1120 PROTEASOME REGULATORY NON-ATP-ASE SUBUNIT, PUTATIVE) was 0.9, the “fold change vs vehicle control” value (protein LMJF.19.1160 HYPOTHETICAL PROTEIN, CONSERVED) was 0.83 and the “fold change vs vehicle control” value (protein LMJF.19.1530 PEPTIDYLPROLYL ISOMERASE-LIKE PROTEIN) was 0.94. The fold change (protein LMJF.20.0100 PHOSPH[…] C, GLYCOSOMAL) was 1.04, the “fold change vs vehicle control” value (protein LMJF.21.0720 HY[…], CONSERVED) was 1.05 and the fold change (protein LMJF.21.1250 ADENYLATE KINASE, PUTATIVE) was 0.98. For the same compound, the fold change (protein LMJF.21.1555 HY[…], CONSERVED) was 1.01, the fold change (protein LMJF.21.1580 HY[…], UNKNOWN FUNCTION) was 1.03 and the “fold change vs vehicle control” value (protein LMJF.21.1700 […] 2 SUBUNIT, PUTATIVE) was 0.89. The fold change (protein LMJF.22.0230 AMINO ACID PERMEASE, PUTATIVE) was 1.2 and the “fold change vs vehicle control” value (protein LMJF.22.0730 HYPOTHETICAL PROTEIN, CONSERVED) was 1.
